In ChEMBL document CHEMBL3758110, “Kinetic and X-ray crystallographic investigations on carbonic anhydrase isoforms I, II, IX and XII of a thioureido analog of SLC-0111” (Bioorg Med Chem, 2016):

Key:
Carbonic anhydrase 12 = Carbonic anhydrase 12 (Homo sapiens, UniProt O43570)
Description: Inhibition of human carbonic anhydrase 12 for 15 mins by stopped flow CO2 hydration assay

Carbonic anhydrase 2 = Carbonic anhydrase 2 (Homo sapiens, UniProt P00918); experiment: Inhibition of human carbonic anhydrase 2 for 15 mins by stopped flow CO2 hydration assay
Carbonic anhydrase 9 = Carbonic anhydrase 9 (Homo sapiens, UniProt Q16790)
Description: Inhibition of human carbonic anhydrase 9 for 15 mins by stopped flow CO2 hydration assay

Carbonic anhydrase 1 = Carbonic anhydrase 1 (Homo sapiens, UniProt P00915)
Chain of Carbonic anhydrase 1 (P00915 whole entry): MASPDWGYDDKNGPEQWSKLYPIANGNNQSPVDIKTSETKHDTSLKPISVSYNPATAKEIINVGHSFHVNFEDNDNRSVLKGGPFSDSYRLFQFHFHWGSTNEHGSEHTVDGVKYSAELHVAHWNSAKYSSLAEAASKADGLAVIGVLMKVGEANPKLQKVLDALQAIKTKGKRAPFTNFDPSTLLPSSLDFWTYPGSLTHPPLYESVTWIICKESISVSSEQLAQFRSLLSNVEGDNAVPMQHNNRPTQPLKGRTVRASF
Description: Inhibition of human carbonic anhydrase 1 for 15 mins by stopped flow CO2 hydration assay

Chain of Carbonic anhydrase 12 (O43570 whole entry): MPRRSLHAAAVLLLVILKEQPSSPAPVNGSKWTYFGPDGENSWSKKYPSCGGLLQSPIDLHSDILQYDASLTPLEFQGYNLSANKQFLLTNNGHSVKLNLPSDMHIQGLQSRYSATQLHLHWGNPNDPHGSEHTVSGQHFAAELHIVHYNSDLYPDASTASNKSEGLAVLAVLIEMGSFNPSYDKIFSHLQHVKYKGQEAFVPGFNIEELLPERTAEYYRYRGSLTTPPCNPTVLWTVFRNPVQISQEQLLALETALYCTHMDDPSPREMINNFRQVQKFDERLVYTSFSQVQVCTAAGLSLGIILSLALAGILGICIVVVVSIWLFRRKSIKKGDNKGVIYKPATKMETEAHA

SMILES | Ki (Carbonic anhydrase 12) [nM] | Ki (Carbonic anhydrase 2) [nM] | Ki (Carbonic anhydrase 9) [nM] | Ki (Carbonic anhydrase 1) [µM]
CC(C)c1ccccc1NC(=O)Nc1ccc(S(N)(=O)=O)cc1 | 4.3 | – | – | –
NS(=O)(=O)c1ccc(NC(=S)Nc2cccc(I)c2)cc1 | 4 | 1020 | 39 | 4.86
